Measurements from EP0408294B1, “Use of an amylin antagonist for the manufacture of amedicament for the treatment of obesity and essential hypertension and related disorders” (AMYLIN PHARMACEUTICALS, INC., priority 1989, dated 1995).
Positions of bridges follow the written chain, without caps; N, C: chain ends. No end group written: not given here.

Columns and labels:
[1] = tested on: isolated soleus muscle; assay: amylin antagonist assay: incorporation of radiolabelled glucose into glycogen in isolated soleus muscle; type: cell-based, rats; details: 1000µU/mL insulin, 20nM amylin
Description: In a further experiment we have shown that the […] CGRP 8-37 also functions as a partial amylin antagonist. Insulin was obtained as Humulin-R, 100U/mL, recombinant human insulin (Eli Lilly, Indianapolis, IN). Amylin, obtained as rat amylin (Bachem, Torrance, CA) and 8-37 human CGRP (Bachem, Torrance CA) were also used. An antagonist assay was performed in vitro using the isolated soleus muscle from rats. It measured the rate of incorporation of radiolabelled glucose into muscle glycogen as follows: (1) under hormone-free conditions (zero insulin, zero amylin, zero hCGRP₈₋₃₇ [antagonist]); (2) under conditions of stimulation of glycogen formation with insulin (1000µU/mL insulin, zero amylin, zero antagonist); (3) under conditions where the near maximal stimulation of glycogen formation has been inhibited with amylin (1000µU/mL insulin, 20nM amylin, zero antagonist); and, (4) under conditions where the suppression of glycogen formation by amylin has been disinhibited by an antagonist to the amylin action (1000µU/mL insulin, 20nM amylin, range of concentrations of antagonist [0, 1nM, 10nM, 100nM, 300nM, 1µM, 10µM]) There were therefore […] (conditions 1,2,3 and […] of condition 4). […]

[2] = tested on: anaesthetised rats; assay: hyperinsulinemic, euglycemic glucose clamp with CGRP infusion; type: in vivo, rat
Description: • Figure 1 indicates the effect of amylin on the insulin-stimulated fate of glucose uptake in isolated incubated skeletal muscles of the rat. • Figure 2a indicates the effect of a CGRP infusion on glucose uptake in an anaesthetised rat under conditions of hyperinsulinaemic, euglycaemic glucose clamp, in which insulin alone was initially infused, following by insulin and CGRP. Similar results have been obtained with an infusion of amylin. • Figure 2b indicates the effect of an infusion of CGRP in an anaesthetised rat under conditions of hyperinsulinaemic, euglycaemic clamp, in which insulin and CGRP were initially infused together, followed by cessation of the CGRP infusion. Similar results have been obtained with an infusion of amylin. • Figure 3 indicates the effect of CGRP on hepatic glucose output in anaesthetised rats, under conditions of hyperinsulinaemic, euglycaemic glucose clamp. Error bars give standard error of the mean. • Figure 4 indicates the effect of CGRP on insulin-stimulated glucose uptake in isolated BC3H-1 myocytes. • Figure 5 indicates the relationship between maximal insulin resistance, as measured by maximal insulin-stimulatable glucose disposal, and levels of serum CGRP-like immunoreactivity in the blood of a group of insulin-resistant type 2 diabetic human patients. […]

[3] = tested on: isolated adipocytes; assay: formation of CO₂ or triacyglycerol in isolated adipocytes; type: cell-based
Source text: (§1) In muscles treated with amylin, there was no response to insulin at the concentration necessary for half-maximal stimulation in non amylin-treated muscles. The effects of amylin were seen even in the presence of very low concentrations of insulin. Amylin produced a 30 percent reduction in the basal rate of glycogen synthesis in the presence of a basal concentration (1 µU/ml) of insulin. In marked contrast, amylin had no effect on either the basal or the insulin-stimulated rates of formation of CO₂ or triacyglycerol in isolated adipocytes. The effect of amylin treatment in muscle could only be overcome by increasing the concentration of insulin to the supra-physiological level of 1000 uU/ml.
Amylin acts by reducing both basal and insulin-induced uptake of glucose into skeletal muscle, especially by reducing the rate of incorporation of glucose into glycogen, and also by reducing the rate of glucose uptake into muscle cells (Molina, M. et al., Science 1989; submitted). […] We have concluded that amylin causes the insulin-resistance in type 2 diabetes, probably in conjunction with CGRP and/or CGRP receptors.

[4] = tested on: red skeletal muscle; assay: glycogen synthesis in amylin-treated skeletal muscle in vitro; type: cell-based, rat; details: insulin at the concentration necessary for half-maximal stimulation in non amylin-treated muscles
Source text: as §1
• Figure 1 indicates the effect of amylin on the insulin-stimulated fate of glucose uptake in isolated incubated skeletal muscles of the rat. • Figure 2a indicates the effect of a CGRP infusion on glucose uptake in an anaesthetised rat under conditions of hyperinsulinaemic, euglycaemic glucose clamp, in which insulin alone was initially infused, following by insulin and CGRP. Similar results have been obtained with an infusion of amylin. • Figure 2b indicates the effect of an infusion of CGRP in an anaesthetised rat under conditions of hyperinsulinaemic, euglycaemic clamp, in which insulin and CGRP were initially infused together, followed by cessation of the CGRP infusion. […]

[5] = tested on: normal rats; assay: intravenous amylin bolus in normal rats; type: in vivo
Description: Similar results have been obtained using amylin. We have also shown that amylin acutely produces diabetes (fasting hyperglycemia greater than 140 mg/dL) when administered intravenously. Eight normal rats were injected with a 100µg bolus of amylin (rat amylin, Bachem, Torrance, CA). An intravenous amylin bolus produced a profound hyperglycemia to diabetic levels within 15-30 minutes (usually around 200 mg/dL). This hyperglycemia persists for several hours. The hyperglycemia is partly accounted for by an increase in hepatic (endogenous) glucose output and partly by an increased impediment in peripheral glucose disposal. […] There is an increase in respiratory quotient (RQ) after amylin only when somatostatin is absent and insulin is allowed to increase in response to hyperglycemia. During somatostatin infusion (no endogenous insulin release), there is no change in RQ, indicating no change from lipid to carbohydrate fuel usage in response to amylin in the fasted animal.

Substance: CGRP₈₋₃₇: 8-37 human CGRP (Bachem), sub-peptide of CGRP, partial amylin antagonist
- increment in the rate of glycogen synthesis from the amylin-inhibited level ([1]; antagonist 1nM to 10µM, maximal increment): about 115%
- EC50 ([1]; 4-parameter logistic fit, read-out: EC₅₀ for disinhibition (half maximal concentration)): 1.2 nM

Substance: CGRP
- glucose infusion rate, new steady state ([2]; Figure 2A protocol, CGRP 0.02 ug/kg/min from 80-150 minutes during constant insulin infusion 1.8 mU/kg/min): 18.0 ± 0.1 mg/kg/min
- rise of glucose disposal rate (GDR) over basal ([2]; Figure 2B protocol, 3H-glucose, last 20 mins of period, CGRP = CGRP plus insulin, insulin = insulin alone, basal GDR 11.2 ± 0.7): 7.4 ± 1.6 mg/kg/min

Substance: amylin: 37-amino acid peptide hormone from islet amyloid, Cys 2-7 disulfide bridge, amidated; rat amylin from Bachem used in tests (KCNTATCATQRLANFLVRSSNNLGPVLPPTNVGSNTY-NH2; disulfide 2-7; UniProt P12969 38-74, looked up)
- effect on basal or insulin-stimulated rates of formation of CO₂ or triacyglycerol [3]: no effect
- response to insulin in muscles treated with amylin [4]: no response
- persistence of hyperglycemia ([5]; 100µg intravenous bolus of rat amylin): several hours
- hyperglycemia (glucose level reached) ([5]; 100µg intravenous bolus of rat amylin, eight normal rats): around 200 mg/dL
- respiratory quotient (RQ) ([5]; after amylin, somatostatin absent, insulin allowed to increase in response to hyperglycemia): increase
- plasma lactate ([5]; after intravenous amylin bolus): transient increase
- respiratory quotient (RQ) ([5]; during somatostatin infusion (no endogenous insulin release), fasted animal): no change
